The numbers were not newly measured in patent US9603795B2, “Composite for preparing a transdermal delivery device and method for synthesizing the composite thereof” (City University of Hong Kong, priority 2014, dated 2017), which cites them from elsewhere.

For this data set the following is noted: oral administration.

Turning to `OC[C@H]1O[C@@H]2O[C@H]3[C@H](O)[C@@H](O)[C@@H](O[C@H]4[C@H](O)[C@@H](O)[C@@H](O[C@H]5[C@H](O)[C@@H](O)[C@@H](O[C@H]6[C@H](O)[C@@H](O)[C@@H](O[C@H]7[C@H](O)[C@@H](O)[C@@H](O[C@H]8[C@H](O)[C@@H](O)[C@@H](O[C@H]1[C@H](O)[C@H]2O)O[C@@H]8CO)O[C@@H]7CO)O[C@@H]6CO)O[C@@H]5CO)O[C@@H]4CO)O[C@@H]3CO` [β-CD, β-cyclodextrin], the “amount absorbed in the upper intestinal tract” value is recorded as 1-2%.
